According to ChEMBL document CHEMBL5036344, “Design and application of hybrid cyclic-linear peptide-doxorubicin conjugates as a strategy to overcome doxorubicin resistance and toxicity” (Eur J Med Chem, 2021):
Calls of active or inactive are those of the source. The rule behind the calls is not given here.

Experiments:
Rattus norvegicus = species: Rattus norvegicus; assay: Drug uptake in nucleus of rat H9c2 cells measured after 24 hrs by DAPI staining based confocal microscopy analysis; format: ADME, cell-based; settings: h9c2, 24 h
H9c2 [1] = assay: Cytotoxicity against rat H9c2 cells assessed as change in cell morphology at 5uM measured after 72 hours; format: cell-based; settings: h9c2, 72 h
CCRF-CEM [2] = assay: Cytotoxicity against human CCRF-CEM cells assessed as reduction in cell viability at 5 uM incubated for 72 hrs by MTT assay; format: functional
CCRF-CEM [3] = assay: Cytotoxicity against human CCRF-CEM cells assessed as reduction in cell viability at 5 uM incubated for 24 hrs by MTT assay; format: functional
[4] = Drug uptake in nucleus of human SK-OV-3 cells incubated for 3 hrs by fluorescence microscopy; format: ADME, subcellular; settings: sk-ov-3, 3 h
MES-SA = assay: Cytotoxicity against human MES-SA cells assessed as reduction in cell viability incubated for 72 hrs by MTT assay; format: functional; settings: read-out: LC50 (the source's name)
MDA-MB-231 [5] = assay: Cytotoxicity against doxorubicin resistant human MDA-MB-231 cells assessed as reduction in cell viability incubated for 72 hrs by MTT assay; format: functional; settings: read-out: LC50 (the source's name)
H9c2 [6] = assay: Cytotoxicity against rat H9c2 cells assessed as reduction in cell viability at 5 uM incubated for 24 hrs by MTT assay; format: cell-based; settings: h9c2, 24 h
H9c2 [7] = assay: Cytotoxicity against rat H9c2 cells assessed as reduction in cell viability at 5 uM incubated for 72 hrs by MTT assay; format: cell-based; settings: h9c2, 72 h
H9c2 [8] = assay: Cytotoxicity against rat H9c2 cells assessed as reduction in cell viability at 5 uM incubated for 96 hrs by MTT assay; format: cell-based; settings: h9c2, 96 h
LLC-PK1 [9] = assay: Cytotoxicity against pig LLC-PK1 cells assessed as reduction in cell viability at 5 uM incubated for 24 hrs by MTT assay; format: cell-based, Sus scrofa; settings: llc-pk1, 24 h
LLC-PK1 [10] = assay: Cytotoxicity against pig LLC-PK1 cells assessed as reduction in cell viability at 5 uM incubated for 72 hrs by MTT assay; format: cell-based, Sus scrofa; settings: llc-pk1, 72 h
AGS [11] = assay: Cytotoxicity against human AGS cells assessed as reduction in cell viability at 5 uM incubated for 24 hrs by MTT assay; format: functional
AGS [12] = assay: Cytotoxicity against human AGS cells assessed as reduction in cell viability at 5 uM incubated for 72 hrs by MTT assay; format: functional
SK-OV-3 [13] = assay: Cytotoxicity against human SK-OV-3 cells assessed as reduction in cell viability at 5 uM incubated for 24 hrs by MTT assay; format: functional
SK-OV-3 [14] = assay: Cytotoxicity against human SK-OV-3 cells assessed as reduction in cell viability at 5 uM incubated for 72 hrs by MTT assay; format: functional
MDA-MB-231 [15] = assay: Cytotoxicity against wild type human MDA-MB-231 cells assessed as reduction in cell viability incubated for 72 hrs by MTT assay; format: functional; settings: read-out: LC50 (the source's name)
CCRF-CEM [16] = assay: Cytotoxicity against human CCRF-CEM cells assessed as reduction in cell viability at 25 uM incubated for 24 hrs by MTT assay; format: functional
LLC-PK1 [17] = assay: Cytotoxicity against pig LLC-PK1 cells assessed as reduction in cell viability at 5 to 50 uM incubated for 72 hrs by MTT assay; format: cell-based, Sus scrofa; settings: llc-pk1, 72 h, dose 5-50 µM
AGS [18] = assay: Cytotoxicity against human AGS cells assessed as reduction in cell viability at 5 to 10 uM incubated for 24 to 72 hrs by MTT assay; format: functional, cell-based; settings: dose 5-10 µM, time 24-72 hrs
AGS [19] = assay: Cytotoxicity against human AGS cells assessed as reduction in cell viability at 25 uM incubated for 72 hrs by MTT assay; format: functional
AGS [20] = assay: Cytotoxicity against human AGS cells assessed as reduction in cell viability at 50 uM incubated for 72 hrs by MTT assay; format: functional
SK-OV-3 [21] = assay: Cytotoxicity against human SK-OV-3 cells assessed as reduction in cell viability at 5 to 25 uM incubated for 24 hrs by MTT assay; format: functional; settings: dose 5-25 µM
SK-OV-3 [22] = assay: Cytotoxicity against human SK-OV-3 cells assessed as reduction in cell viability at 25 uM incubated for 72 hrs by MTT assay; format: functional
LLC-PK1 [23] = assay: Cytotoxicity against pig LLC-PK1 cells assessed as reduction in cell viability at 50 uM after 24 hrs of incubation by MTT assay; format: cell-based, Sus scrofa; settings: llc-pk1, 24 h
CCRF-CEM [24] = assay: Cytotoxicity against human CCRF-CEM cells assessed as reduction in cell viability at 5 to 10 uM after 72 hrs incubation by MTT assay; format: functional; settings: dose 5-10 µM

## COc1cccc2c1C(=O)c1c(O)c3c(c(O)c1C2=O)C[C@@](O)(C(=O)CO)C[C@@H]3O[C@H]1C[C@H](N)[C@H](O)[C@H](C)O1 [DOXORUBICIN]
Rattus norvegicus
  Drug uptake: Active
H9c2 [1]
  Activity: Toxic
CCRF-CEM [2]
  Activity: 85%
CCRF-CEM [3]
  Activity: 52%
[4]
  Drug uptake: Active
MES-SA
  CC50: 4300 nM
MDA-MB-231 [5]
  CC50: 2300 nM
H9c2 [6]
  Activity: 20%
H9c2 [7]
  Activity: 44%
H9c2 [8]
  Activity: 44%
LLC-PK1 [9]
  Activity: 64%
LLC-PK1 [10]
  Activity: 77%
AGS [11]
  Activity: 46%
AGS [12]
  Activity: 87%
SK-OV-3 [13]
  Activity: 27%
SK-OV-3 [14]
  Activity: 33%
MDA-MB-231 [15]
  CC50: 450 nM

## N=C(N)NCCC[C@@H]1NC(=O)[C@H](CCCCNC(=O)[C@H](Cc2c[nH]c3ccccc23)NC(=O)[C@H](Cc2c[nH]c3ccccc23)NC(=O)[C@H](Cc2c[nH]c3ccccc23)NC(=O)[C@H](Cc2c[nH]c3ccccc23)NC(=O)[C@H](Cc2c[nH]c3ccccc23)NC(=O)[C@H](Cc2c[nH]c3ccccc23)NC(=O)[C@H](Cc2c[nH]c3ccccc23)NC(=O)CCN)NC(=O)[C@H](CCCNC(=N)N)NC(=O)[C@H](CCCNC(=N)N)NC(=O)[C@H](CCCNC(=N)N)NC(=O)[C@H](CCCNC(=N)N)NC1=O
CCRF-CEM [16]
  Activity: 68%
LLC-PK1 [17]
  Activity: Non-Toxic
AGS [18]
  Activity: inactive
AGS [19]
  Activity: 24%
AGS [20]
  Activity: 87%
SK-OV-3 [21]
  Activity: 21%
SK-OV-3 [22]
  Activity: 19%
LLC-PK1 [23]
  Activity: 71%
CCRF-CEM [24]
  Activity: 10%
